The source of these data is ChEMBL document CHEMBL5052854, “Alpha-5 beta-1 inhibitors” (2021).

A value given as a limit tells only on which side of the number the result lay.

The experiment deals with FG2. Put plainly: Inhibition of cell adhesion in human FG2 cells assessed as decrease in cell adhesion to matrix incubated for 1 hr by crystal violet staining based assay. It is filed as functional. Conditions: FG2, 1 h.

In the case of `Cc1cccc(Cl)c1C(=O)N[C@@H](CNC(=O)CNC(=O)c1cccc(NC(=N)N)c1)C(=O)O`, the IC50 was under 1000 nM. For the molecule `N=C(N)Nc1cccc(C(=O)NCC(=O)NC[C@H](NC(=O)c2c(Cl)cc(N3CCOCC3)cc2Cl)C(=O)O)c1`, the IC50 is under 100 nM. Regarding `O=C(CNC(=O)c1cccc(NC2=NCCCN2)c1)NC[C@H](NC(=O)c1c(Cl)cccc1Cl)C(=O)O`, the IC50 was under 100 nM.

On to `Cc1ccnc(Nc2cccc(C(=O)NCC(=O)NC[C@H](NC(=O)c3c(Cl)cccc3Cl)C(=O)O)c2)c1`, for which the IC50 was under 10000 nM. With `O=C(CNC(=O)c1cccc(NC2=NCC(O)CN2)c1)NC[C@H](NC(=O)c1c(Cl)cc(-c2ccccc2)cc1Cl)C(=O)O` (stereo partly drawn), the IC50 was under 100 nM. The result for `O=C(CNC(=O)c1cccc(NC2=NCC(F)CN2)c1)NC[C@H](NC(=O)c1c(Cl)cc(N2CCS(=O)(=O)CC2)cc1Cl)C(=O)O` (stereo partly drawn) reads under 100 nM; that for `N#C/N=C(\N)Nc1cccc(C(=O)NCC(=O)NC[C@H](NC(=O)c2c(Cl)cccc2Cl)C(=O)O)c1`, 100 nM. Consider `O=C(CNC(=O)c1cccc(NC2=NCCCN2)c1)NC[C@H](NC(=O)c1c(Cl)cc(-c2ccccc2)cc1Cl)C(=O)O`, for which the IC50 is under 100 nM.

Consider `COc1ccc(Nc2cccc(C(=O)NCC(=O)NC[C@H](NC(=O)c3c(Cl)cccc3Cl)C(=O)O)c2)nc1`, for which the IC50 is under 50000 nM.

With `O=C(CNC(=O)c1cccc(NC2=NCC(F)CN2)c1)NC[C@H](NC(=O)c1c(Cl)cc(-c2ccc3cn[nH]c3c2)cc1Cl)C(=O)O` (stereo partly drawn), the IC50 is under 100 nM.

For the molecule `O=C(CNC(=O)c1cccc(NC2=NCCCO2)c1)NC[C@H](NC(=O)c1c(Cl)cc(-c2ccccc2)cc1Cl)C(=O)O`, the IC50 was under 100 nM. `O=C(CNC(=O)c1cccc(NC2=NCC(F)(F)CN2)c1)NC[C@H](NC(=O)c1c(Cl)cc(-c2ccc3cn[nH]c3c2)cc1Cl)C(=O)O`: the IC50 is under 100 nM.

`O=C(CNC(=O)c1cccc(NC2=NCC(F)(F)CN2)c1)NC[C@H](NC(=O)c1c(Cl)cc(-c2ccccc2)cc1Cl)C(=O)O`: the IC50 was under 100 nM.

Regarding `C[C@@H](NC(=O)c1cccc(NC2=NCC(F)CN2)c1)C(=O)NC[C@H](NC(=O)c1c(Cl)cc(-c2ccccc2)cc1Cl)C(=O)O` (stereo partly drawn), the 50% inhibitory concentration (IC50) amounted to 101 nM. Regarding `N#C/N=C(\N)Nc1cccc(C(=O)NCC(=O)NC[C@@H](NC(=O)c2c(Cl)cccc2Cl)C(=O)O)c1`, the IC50 was under 10000 nM. The result for `O=C(CNC(=O)c1cccc(NC2=NCC(F)CN2)c1)NC[C@H](NC(=O)c1c(Cl)cc(-c2ccccc2)cc1Cl)C(=O)O` (stereo partly drawn) reads under 100 nM. Turning to `O=C(CNC(=O)c1cccc(NC2=NCC(F)CN2)c1)NC[C@H](NC(=O)c1c(Cl)cc(N2CCOCC2)cc1Cl)C(=O)O` (stereo partly drawn), the half-inhibitory concentration (IC50) is under 100 nM. As for `CS(=O)(=O)c1ccc(-c2cc(Cl)c(C(=O)N[C@@H](CNC(=O)CNC(=O)c3cccc(NC(=N)N)c3)C(=O)O)c(Cl)c2)cc1`, the IC50 was under 100 nM. `O=C(CNC(=O)c1cccc(NC2=NCC(F)(F)CN2)c1)NC[C@H](NC(=O)c1c(Cl)cc(N2CCOCC2)cc1Cl)C(=O)O`: the IC50 was under 100 nM. In the case of `N=C(N)Nc1cccc(C(=O)NCC(=O)NC[C@H](NC(=O)c2c(Cl)cc(-c3ccccc3)cc2Cl)C(=O)O)c1`, the IC50 was under 100 nM.

As to `CNc1cccc(C(=O)NCC(=O)NC[C@H](NC(=O)c2c(Cl)cc(-c3ccccc3)cc2Cl)C(=O)O)n1`, the IC50 is 1000 nM. On to `N=C(N)Nc1ccc2c(c1)C(NCC(=O)NC[C@H](NC(=O)c1c(Cl)cccc1Cl)C(=O)O)CCO2` (stereo partly drawn), for which the IC50 was under 1000 nM. The result for `O=C(CNC(=O)c1cccc(NC2=NCCCS2)c1)NC[C@H](NC(=O)c1c(Cl)cc(-c2ccccc2)cc1Cl)C(=O)O` reads under 100 nM; that for `C/N=C(\NC)Nc1cccc(C(=O)NCC(=O)NC[C@H](NC(=O)c2c(Cl)cc(-c3ccccc3)cc2Cl)C(=O)O)c1`, 101 nM; that for `N=C(N)Nc1ccc2ccn(CCC(=O)NC[C@H](NC(=O)c3c(Cl)cccc3Cl)C(=O)O)c2c1`, under 10000 nM. The result for `N=C(N)Nc1cccc(C(=O)NCC(=O)NC[C@H](NC(=O)c2c(Cl)cccc2Cl)C(=O)O)c1` reads under 100 nM.

For the molecule `CN(CC(=O)NC[C@H](NC(=O)c1c(Cl)cc(-c2ccccc2)cc1Cl)C(=O)O)C(=O)c1cccc(NC(=N)N)c1`, the IC50 was determined as 101 nM. In the case of `N#Cc1cc(NC(=N)N)cc(C(=O)NCC(=O)NC[C@H](NC(=O)c2c(Cl)cc(-c3ccccc3)cc2Cl)C(=O)O)c1`, the half-inhibitory concentration (IC50) was under 100 nM.
